According to US7138361B2, “Herbicidal heterocycles” (E. I. du Pont de Nemours and Company, priority 2000, dated 2006):

Experiments:
Format in all cases: in vivo
Sunflower [1] = assay: Test C preemergence; conditions: Rate 250 g/ha, visual evaluation after 12 to 14 days
[2] = test system: barnyardgrass (Echinochloa crus-galli); assay: Test B postemergence; conditions: 13 to 15 days
Outline: (§1)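 Post-treatment, species sat 13–15 days under greenhouse conditions before visual scoring against controls, 0 (no effect) through 100 (complete control). Application preemergence to sown seeds or postemergence at 1- to 4-leaf stage, using a non-phytotoxic solvent/surfactant formulation.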

[3] = test system: giant foxtail (Setaria faberii); assay: Test B postemergence; conditions: 13 to 15 days
Outline: as §1

[4] = test system: blackgrass (Alopecurus myosuroides); assay: Test B postemergence; conditions: 13 to 15 days
Outline: as §1

[5] = test system: morning glory (Ipomoea hederacea); assay: Test B postemergence; conditions: 13 to 15 days
Outline: as §1

wild oat (Avena fatua) = assay: Test B postemergence; conditions: 13 to 15 days
Outline: as §1

[6] = test system: pigweed (Amaranthus retroflexus); assay: Test B postemergence; conditions: 13 to 15 days
Outline: as §1

[7] = test system: lambsquarters (Chenopodium album); assay: Test B postemergence; conditions: 13 to 15 days
Outline: as §1

[8] = test system: wheat (Triticum aestivum); assay: Test B postemergence; conditions: 13 to 15 days
Outline: as §1

[9] = test system: cocklebur (Xanthium strumarium); assay: Test B postemergence; conditions: 13 to 15 days
Outline: as §1

[10] = test system: Surinam grass (Brachiaria decumbens); assay: Test B postemergence; conditions: 13 to 15 days
Outline: as §1

[11] = test system: velvetleaf (Abutilon theophrasti); assay: Test B postemergence; conditions: 13 to 15 days
Outline: as §1

corn (Zea mays) [12] = assay: Test B postemergence; conditions: 13 to 15 days
Outline: as §1

[13] = test system: crabgrass (Digitaria sanguinalis); assay: Test B postemergence; conditions: 13 to 15 days
Outline: as §1

[14] = test system: giant foxtail (Setaria faberii); assay: Test C preemergence; conditions: for Plant response rating (0 to 100), Foxtail, Giant: Rate 250 g/ha, visual evaluation after 12 to 14 days
Outline: (§2)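 Compounds in non-phytotoxic solvent with surfactant applied preemergence to planted seeds and postemergence to plants at 1- to 4-leaf stage (2–18 cm). Kept in greenhouse 12–14 days, then visually rated against controls on a 0 (no effect) to 100 (complete control) scale.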

[15] = test system: yellow nutsedge (Cyperus esculentus); assay: Test C preemergence; conditions: for Plant response rating (0 to 100), Nutsedge: Rate 250 g/ha, visual evaluation after 12 to 14 days
Outline: as §2

[16] = test system: bermudagrass (Cynodon dactylon); assay: Test C preemergence; conditions: for Plant response rating (0 to 100 where 0 is no effect and 100 is complete control), Bermudagrass: Rate 250 g/ha, visual evaluation after 12 to 14 days
Outline: as §2

[17] = test system: johnsongrass (Sorghum halepense); assay: Test C preemergence; conditions: for Plant response rating (0 to 100), Johnsongrass: Rate 250 g/ha, visual evaluation after 12 to 14 days
Outline: as §2

[18] = test system: velvetleaf (Abutilon theophrasti); assay: Test C preemergence; conditions: for Plant response rating (0 to 100), Velvetleaf: Rate 250 g/ha, visual evaluation after 12 to 14 days
Outline: as §2

Sunflower [19] = assay: Test C preemergence
corn (Zea mays) [20] = assay: Test C preemergence; conditions: for Plant response rating (0 to 100), Corn: Rate 250 g/ha, visual evaluation after 12 to 14 days
Outline: as §2

[21] = test system: morningglory (Ipomoea hederacea); assay: Test C preemergence; conditions: for Plant response rating (0 to 100), Morningglory: Rate 250 g/ha, visual evaluation after 12 to 14 days
Outline: as §2

kochia (Kochia scoparia) = assay: Test C preemergence; conditions: for Plant response rating (0 to 100), Kochia: Rate 250 g/ha, visual evaluation after 12 to 14 days
Outline: as §2

[22] = Rate 125 g/ha, scale 0 (no effect) to 100 (complete control)
[23] = Rate 500 g/ha, scale 0 to 100, 0 is no effect, 100 is complete control
[24] = Rate 62 g/ha, scale 0 to 100, 0 no effect, 100 complete control
[25] = preemergence, Rate 31 g/ha, scale 0 to 100
[26] = preemergence, Rate 125 g/ha, scale 0 to 100, 0 no effect, 100 complete control
[27] = Preemergence, Rate 500 g/ha, scale 0 to 100

SMILES: O=C1C(n2ccc(C3CCC3)n2)SCN1c1cccc(C(F)(F)F)c1 (stereo not shown) [Compound 37]
- Plant response rating (0 to 100), Sunflower (Sunflower [1]): 60
- Plant response rating, Barnyardgrass [2, 22]: 80
- Plant response rating, Barnyardgrass [2, 23]: 100
- Plant response rating, Foxtail, Giant [3, 22]: 60
- Plant response rating, Foxtail, Giant [3, 23]: 80
- Plant response rating, Blackgrass [4, 22]: 0
- Plant response rating, Blackgrass [4, 23]: 0
- Plant response rating, Morningglory [5, 22]: 20
- Plant response rating, Morningglory [5, 23]: 40
- Plant response rating, Wild Oat (wild oat (Avena fatua); [22]): 0
- Plant response rating, Wild Oat (wild oat (Avena fatua); [23]): 0
- Plant response rating, Pigweed [6, 22]: 20
- Plant response rating, Pigweed [6, 23]: 90
- Plant response rating, Lambsquarters [7, 22]: 0
- Plant response rating, Lambsquarters [7, 23]: 90
- Plant response rating, Wheat [8, 22]: 0
- Plant response rating, Wheat [8, 23]: 0
- Plant response rating, Cocklebur [9, 22]: 10
- Plant response rating, Cocklebur [9, 23]: 30
- Plant response rating, Surinam grass [10, 22]: 0
- Plant response rating, Surinam grass [10, 23]: 0
- Plant response rating, Velvetleaf [11, 22]: 0
- Plant response rating, Velvetleaf [11, 23]: 0
- Plant response rating, Corn (corn (Zea mays) [12]; [22]): 0
- Plant response rating, Corn (corn (Zea mays) [12]; [23]): 20
- Plant response rating, Crabgrass [13, 22]: 0
- Plant response rating, Crabgrass [13, 23]: 100
- Plant response rating, Foxtail, Giant [14, 24]: 60
- Plant response rating, Foxtail, Giant [14, 25]: 50
- Plant response rating (0 to 100), Foxtail, Giant ([14]; preemergence): 100
- Plant response rating, Foxtail, Giant [14, 26]: 70
- Plant response rating, Nutsedge [15, 24]: 20
- Plant response rating, Nutsedge [15, 25]: 0
- Plant response rating (0 to 100), Nutsedge ([15]; preemergence): 30
- Plant response rating, Nutsedge [15, 26]: 20
- Plant response rating, Bermudagrass [16, 24]: 70
- Plant response rating, Bermudagrass [16, 25]: 60
- Plant response rating (0 to 100 where 0 is no effect and 100 is complete control), Bermudagrass ([16]; preemergence): 100
- Plant response rating, Bermudagrass [16, 26]: 80
- Plant response rating, Johnsongrass [17, 24]: 30
- Plant response rating, Johnsongrass [17, 25]: 20
- Plant response rating (0 to 100), Johnsongrass ([17]; preemergence): 90
- Plant response rating, Johnsongrass [17, 26]: 30
- Plant response rating, Velvetleaf [18, 24]: 0
- Plant response rating, Velvetleaf [18, 25]: 0
- Plant response rating (0 to 100), Velvetleaf ([18]; preemergence): 20
- Plant response rating, Velvetleaf [18, 26]: 20
- Plant response rating, Sunflower (Sunflower [19]; [24]): 0
- Plant response rating, Corn (corn (Zea mays) [20]; [24]): 0
- Plant response rating, Corn (corn (Zea mays) [20]; [25]): 0
- Plant response rating (0 to 100), Corn (corn (Zea mays) [20]; preemergence): 40
- Plant response rating, Corn (corn (Zea mays) [20]; [26]): 40
- Plant response rating, Morningglory [21, 24]: 0
- Plant response rating, Morningglory [21, 25]: 0
- Plant response rating (0 to 100), Morningglory ([21]; preemergence): 30
- Plant response rating, Morningglory [21, 26]: 0
- Plant response rating, Kochia (kochia (Kochia scoparia); [24]): 50
- Plant response rating, Kochia (kochia (Kochia scoparia); [25]): 40
- Plant response rating (0 to 100), Kochia (kochia (Kochia scoparia); preemergence): 100
- Plant response rating, Kochia (kochia (Kochia scoparia); [26]): 100

SMILES: CC(C)c1ccn(C2SCN(c3cccc(OC(F)F)c3)C2=O)n1 (stereo not shown) [Compound 44]
- Plant response rating (0 to 100), Sunflower (Sunflower [1]): 20
- Plant response rating, Barnyardgrass [2, 22]: 40
- Plant response rating, Barnyardgrass [2, 23]: 100
- Plant response rating, Foxtail, Giant [3, 22]: 0
- Plant response rating, Foxtail, Giant [3, 23]: 60
- Plant response rating, Blackgrass [4, 22]: 0
- Plant response rating, Blackgrass [4, 23]: 0
- Plant response rating, Morningglory [5, 22]: 0
- Plant response rating, Morningglory [5, 23]: 0
- Plant response rating, Wild Oat (wild oat (Avena fatua); [22]): 0
- Plant response rating, Wild Oat (wild oat (Avena fatua); [23]): 0
- Plant response rating, Pigweed [6, 22]: 0
- Plant response rating, Pigweed [6, 23]: 0
- Plant response rating, Lambsquarters [7, 22]: 20
- Plant response rating, Lambsquarters [7, 23]: 60
- Plant response rating, Wheat [8, 22]: 0
- Plant response rating, Wheat [8, 23]: 0
- Plant response rating, Cocklebur [9, 22]: 20
- Plant response rating, Cocklebur [9, 23]: 70
- Plant response rating, Surinam grass [10, 22]: 0
- Plant response rating, Surinam grass [10, 23]: 0
- Plant response rating, Velvetleaf [11, 22]: 0
- Plant response rating, Velvetleaf [11, 23]: 0
- Plant response rating, Corn (corn (Zea mays) [12]; [22]): 0
- Plant response rating, Corn (corn (Zea mays) [12]; [23]): 20
- Plant response rating, Crabgrass [13, 22]: 0
- Plant response rating, Crabgrass [13, 23]: 40
- Plant response rating, Foxtail, Giant [14, 27]: 90
- Plant response rating, Foxtail, Giant [14, 24]: 0
- Plant response rating (0 to 100), Foxtail, Giant ([14]; preemergence): 100
- Plant response rating, Foxtail, Giant [14, 26]: 100
- Plant response rating, Nutsedge [15, 27]: 100
- Plant response rating, Nutsedge [15, 24]: 0
- Plant response rating (0 to 100), Nutsedge ([15]; preemergence): 60
- Plant response rating, Nutsedge [15, 26]: 30
- Plant response rating, Bermudagrass [16, 27]: 100
- Plant response rating, Bermudagrass [16, 24]: 90
- Plant response rating (0 to 100 where 0 is no effect and 100 is complete control), Bermudagrass ([16]; preemergence): 100
- Plant response rating, Bermudagrass [16, 26]: 100
- Plant response rating, Johnsongrass [17, 27]: 100
- Plant response rating, Johnsongrass [17, 24]: 0
- Plant response rating (0 to 100), Johnsongrass ([17]; preemergence): 90
- Plant response rating, Johnsongrass [17, 26]: 60
- Plant response rating, Velvetleaf [18, 27]: 60
- Plant response rating, Velvetleaf [18, 24]: 0
- Plant response rating (0 to 100), Velvetleaf ([18]; preemergence): 20
- Plant response rating, Velvetleaf [18, 26]: 0
- Plant response rating, Sunflower (Sunflower [19]; [24]): 0
- Plant response rating, Sunflower (Sunflower [19]; Rate 500 g/ha, scale 0 to 100): 30
- Plant response rating, Corn (corn (Zea mays) [20]; [27]): 70
- Plant response rating, Corn (corn (Zea mays) [20]; [24]): 0
- Plant response rating (0 to 100), Corn (corn (Zea mays) [20]; preemergence): 0
- Plant response rating, Corn (corn (Zea mays) [20]; [26]): 0
- Plant response rating, Morningglory [21, 27]: 40
- Plant response rating, Morningglory [21, 24]: 0
- Plant response rating (0 to 100), Morningglory ([21]; preemergence): 20
- Plant response rating, Morningglory [21, 26]: 0
- Plant response rating, Kochia (kochia (Kochia scoparia); [27]): 100
- Plant response rating, Kochia (kochia (Kochia scoparia); [24]): 70
- Plant response rating (0 to 100), Kochia (kochia (Kochia scoparia); preemergence): 100
- Plant response rating, Kochia (kochia (Kochia scoparia); [26]): 100
